The values that follow come from ChEMBL document CHEMBL4411343, “Synthesis and biological evaluation of novel N-substituted nipecotic acid derivatives with a cis-alkene spacer as GABA uptake inhibitors” (Bioorg Med Chem, 2019).

One experiment deals with T1, GABA transporter 4 (Mus musculus, UniProt P31650).
T1 sequence (P31650 whole entry): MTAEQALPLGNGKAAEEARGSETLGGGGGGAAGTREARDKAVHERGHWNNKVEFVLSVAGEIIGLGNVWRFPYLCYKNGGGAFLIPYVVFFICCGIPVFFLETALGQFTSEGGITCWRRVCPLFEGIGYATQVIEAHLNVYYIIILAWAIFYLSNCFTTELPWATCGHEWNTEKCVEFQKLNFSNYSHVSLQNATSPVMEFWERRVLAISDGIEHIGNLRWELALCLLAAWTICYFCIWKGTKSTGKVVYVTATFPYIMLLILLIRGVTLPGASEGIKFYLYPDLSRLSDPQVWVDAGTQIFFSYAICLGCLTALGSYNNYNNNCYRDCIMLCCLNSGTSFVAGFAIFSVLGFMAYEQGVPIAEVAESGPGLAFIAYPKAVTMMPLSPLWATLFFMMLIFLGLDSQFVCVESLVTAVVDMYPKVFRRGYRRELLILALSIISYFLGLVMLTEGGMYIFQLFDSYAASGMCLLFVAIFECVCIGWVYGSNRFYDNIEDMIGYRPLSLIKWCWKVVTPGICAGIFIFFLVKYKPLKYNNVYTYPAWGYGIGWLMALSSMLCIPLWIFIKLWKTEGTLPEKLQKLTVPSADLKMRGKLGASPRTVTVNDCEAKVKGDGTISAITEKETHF
Nature of the experiment: Inhibition of mouse GAT4 expressed in HEK293 cells assessed as reduction in [3H]GABA uptake preincubated for 25 mins followed by [3H]GABA addition and measured after 4 mins by microbeta liquid scintillation counting method. In kind it is cell-based.
Settings: not given
Usually IC50 stands for the concentration that inhibits the measured activity by half. Take `COc1ccc(C(/C=C\CCN2CCCC(C(=O)O)C2)(c2ccc(OC)cc2)c2ccc(OC)cc2)cc1` (racemic): the IC50 was 16.2 µM.

For `COc1ccc(C(/C=C\CN2CCCC(C(=O)O)C2)c2ccc(OC)cc2)cc1` (racemic), the IC50 is 49 µM.

Consider `COc1ccc(C(/C=C\CN2CCCC(C(=O)O)C2)(c2ccc(OC)cc2)c2ccsc2)cc1` (racemic), for which the IC50 is 33.1 µM.

As for `O=C(O)C1CCCN(CC/C=C\C(c2ccccc2)(c2ccccc2)c2ccccc2)C1` (racemic), the half-inhibitory concentration (IC50) is 17.4 µM.

For `COc1ccc(CC(/C=C\CN2CCCC(C(=O)O)C2)(c2ccc(OC)cc2)c2ccc(OC)cc2)cc1` (racemic), the IC50 is 57.5 µM.

In the case of `COc1ccc(C(/C=C\CN2CCCC(C(=O)O)C2)(Cc2ccccc2)c2ccc(OC)cc2)cc1` (racemic), the IC50 was 63.1 µM.

With `O=C(O)C1CCCN(C/C=C\CC(c2ccccc2)(c2ccccc2)c2ccccc2)C1` (racemic), the IC50 is 15.1 µM.

`COc1ccc(C(C/C=C\CN2CCCC(C(=O)O)C2)(c2ccc(OC)cc2)c2ccc(OC)cc2)cc1` (racemic): the IC50 was 61.7 µM.

For the compound `COc1ccc(C(/C=C\CN2CCCC(C(=O)O)C2)(c2ccc(OC)cc2)c2ccc3c(c2)OCO3)cc1` (racemic), the concentration for half-maximal inhibition (IC50) was 10 µM.

The target of another experiment is T2, Sodium- and chloride-dependent GABA transporter 1 (Mus musculus, UniProt P31648). Description: Displacement of NO711 from mouse GAT1 expressed in stable HEK293 cells assessed as remaining specific NO711 binding level preincubated at 100 uM for 10 mins followed by NO711 addition and measured after 40 mins by LC-ESI-MS/MS analysis. In kind it is cell-based. Particulars: read-out: Activity.
With `COc1ccc(C(O)(/C=C\CN2CCCC(C(=O)O)C2)c2ccc(OC)cc2)cc1` (racemic), the activity at 100 µM is 53%.

For `COc1ccc(C(/C=C\CN2CCCC(C(=O)O)C2)(c2ccc(OC)cc2)c2ccsc2)cc1` (racemic), the activity at 100 µM worked out at 62%.

Take `COc1ccc(C(/C=C\CN2CCCC(C(=O)O)C2)(c2ccc(OC)cc2)c2nccs2)cc1` (racemic): the activity at 100 µM came out at 78%.

Another experiment addresses Sodium- and chloride-dependent GABA transporter 2 (Mus musculus). Description: Inhibition of mouse GAT3 expressed in HEK293 cells assessed as reduction in [3H]GABA uptake preincubated for 25 mins followed by [3H]GABA addition and measured after 4 mins by microbeta liquid scintillation counting method.
Settings: not given
A word on the pIC50: it is the IC50 on a negative log10 scale, so that one unit is a factor of ten. In the case of `COc1ccc(C(C#CCN2CCCC(C(=O)O)C2)(c2ccc(OC)cc2)c2ccc(OC)cc2)cc1` (racemic), the negative logarithm of the IC50 (pIC50) was found to be 4.61.

The target in the next experiment is T2, Sodium- and chloride-dependent GABA transporter 1. Description: Displacement of NO711 from mouse GAT1 expressed in stable HEK293 cell membranes preincubated for 10 mins followed by NO711 addition and measured after 40 mins by LC-ESI-MS/MS analysis.
Settings: not given
The term Ki denotes a measure of affinity in units of concentration, obtained from inhibition or displacement. In turn, `COc1ccc(C(/C=C\CCN2CCCC(C(=O)O)C2)(c2ccc(OC)cc2)c2ccc(OC)cc2)cc1` (racemic) showed a Ki of 23.4 µM.

In turn, `COc1ccc(C(/C=C\CN2CCCC(C(=O)O)C2)c2ccc(OC)cc2)cc1` (racemic) showed a Ki of 26.3 µM.

In turn, `O=C(O)C1CCCN(CC/C=C\C(c2ccccc2)(c2ccccc2)c2ccccc2)C1` (racemic) had a Ki of 7.41 µM.

Compound `COc1ccc(CC(/C=C\CN2CCCC(C(=O)O)C2)(c2ccc(OC)cc2)c2ccc(OC)cc2)cc1` (racemic) had a Ki of 25.7 µM.

As for `COc1ccc(C(/C=C\CN2CCCC(C(=O)O)C2)(Cc2ccccc2)c2ccc(OC)cc2)cc1` (racemic), the Ki is 41.7 µM.

For the compound `O=C(O)C1CCCN(C/C=C\CC(c2ccccc2)(c2ccccc2)c2ccccc2)C1` (racemic), the Ki was 0.513 µM.

`COc1ccc(C(C/C=C\CN2CCCC(C(=O)O)C2)(c2ccc(OC)cc2)c2ccc(OC)cc2)cc1` (racemic) had an inhibition constant Ki of 24 µM.

Regarding `COc1ccc(C(/C=C\CN2CCCC(C(=O)O)C2)(c2ccc(OC)cc2)c2ccc3c(c2)OCO3)cc1` (racemic), the inhibitory constant (Ki) was 53.7 µM.

`COc1ccc(C(/C=C\CN2CCCC(C(=O)O)C2)(c2ccc(OC)cc2)c2ccc(OC)cc2)cc1` (racemic) had an inhibition constant Ki of 17.8 µM.

Another experiment has the same target. Description: Inhibition of mouse GAT1 expressed in HEK293 cells assessed as reduction in [3H]GABA uptake preincubated for 25 mins followed by [3H]GABA addition and measured after 4 mins by microbeta liquid scintillation counting method. In kind it is cell-based.
Settings: not given
Take `COc1ccc(C(/C=C\CCN2CCCC(C(=O)O)C2)(c2ccc(OC)cc2)c2ccc(OC)cc2)cc1` (racemic): the IC50 is 30.9 µM.

With `COc1ccc(C(/C=C\CN2CCCC(C(=O)O)C2)(c2ccc(OC)cc2)c2ccsc2)cc1` (racemic), the concentration for half-maximal inhibition (IC50) was 79.4 µM.

For the compound `O=C(O)C1CCCN(CC/C=C\C(c2ccccc2)(c2ccccc2)c2ccccc2)C1` (racemic), the IC50 is 40.7 µM.

For the compound `COc1ccc(CC(/C=C\CN2CCCC(C(=O)O)C2)(c2ccc(OC)cc2)c2ccc(OC)cc2)cc1` (racemic), the 50% inhibitory concentration (IC50) is 74.1 µM.

As for `COc1ccc(C(/C=C\CN2CCCC(C(=O)O)C2)(Cc2ccccc2)c2ccc(OC)cc2)cc1` (racemic), the IC50 was 38 µM.

Regarding `O=C(O)C1CCCN(C/C=C\CC(c2ccccc2)(c2ccccc2)c2ccccc2)C1` (racemic), the IC50 is 1 µM.

`COc1ccc(C(C/C=C\CN2CCCC(C(=O)O)C2)(c2ccc(OC)cc2)c2ccc(OC)cc2)cc1` (racemic): the IC50 is 41.7 µM.

In the case of `COc1ccc(C(/C=C\CN2CCCC(C(=O)O)C2)(c2ccc(OC)cc2)c2ccc3c(c2)OCO3)cc1` (racemic), the concentration for half-maximal inhibition (IC50) was 95.5 µM.

The target is the same in the next experiment. Nature of the experiment: Inhibition of mouse GAT1 expressed in HEK293 cells assessed as remaining [3H]GABA uptake at 100 uM preincubated for 25 mins followed by [3H]GABA addition and measured after 4 mins by liquid scintillation counting method relative to control. As to conditions: read-out: Activity. In kind it is cell-based.
Turning to `COc1ccc(C(O)(/C=C\CN2CCCC(C(=O)O)C2)c2ccc(OC)cc2)cc1` (racemic), the activity at 100 µM is 81%.

`COc1ccc(C(/C=C\CN2CCCC(C(=O)O)C2)c2ccc(OC)cc2)cc1` (racemic): the activity at 100 µM was determined as 62%.

Regarding `COc1ccc(C(/C=C\CN2CCCC(C(=O)O)C2)(c2ccc(OC)cc2)c2nccs2)cc1` (racemic), the activity at 100 µM came out at 69%.

For another experiment, the target named is Sodium- and chloride-dependent betaine transporter (Mus musculus). Nature of the experiment: Inhibition of mouse GAT2 expressed in HEK293 cells assessed as reduction in [3H]GABA uptake preincubated for 25 mins followed by [3H]GABA addition and measured after 10 mins by microbeta liquid scintillation counting method.
Settings: not given
As for `COc1ccc(C(C#CCN2CCCC(C(=O)O)C2)(c2ccc(OC)cc2)c2ccc(OC)cc2)cc1` (racemic), the pIC50 was 4.36.

For a further experiment, the system named is Sodium- and chloride-dependent GABA transporter 2 (Mus musculus). Description: Inhibition of mouse GAT3 expressed in HEK293 cells assessed as remaining [3H]GABA uptake at 100 uM preincubated for 25 mins followed by [3H]GABA addition and measured after 4 mins by liquid scintillation counting method relative to control.
Settings: not given
Take `COc1ccc(C(O)(/C=C\CN2CCCC(C(=O)O)C2)c2ccc(OC)cc2)cc1` (racemic): the activity at 100 µM amounted to 97%.

Regarding `COc1ccc(C(/C=C\CN2CCCC(C(=O)O)C2)c2ccc(OC)cc2)cc1` (racemic), the activity at 100 µM came out at 72%.

As to `COc1ccc(C(/C=C\CN2CCCC(C(=O)O)C2)(c2ccc(OC)cc2)c2ccsc2)cc1` (racemic), the activity at 100 µM is 49%.

As for `COc1ccc(C(/C=C\CN2CCCC(C(=O)O)C2)(c2ccc(OC)cc2)c2nccs2)cc1` (racemic), the activity at 100 µM was determined as 78%.

Regarding `COc1ccc(C(/C=C\CN2CCCC(C(=O)O)C2)(Cc2ccccc2)c2ccc(OC)cc2)cc1` (racemic), the activity at 100 µM was found to be 57%.

`O=C(O)C1CCCN(C/C=C\CC(c2ccccc2)(c2ccccc2)c2ccccc2)C1` (racemic): the activity at 100 µM is 56%.

The next experiment has as its system Sodium- and chloride-dependent betaine transporter (Mus musculus). Nature of the experiment: Inhibition of mouse GAT2 expressed in HEK293 cells assessed as remaining [3H]GABA uptake at 100 uM preincubated for 25 mins followed by [3H]GABA addition and measured after 10 mins by liquid scintillation counting method relative to control.
Settings: not given
For the compound `COc1ccc(C(/C=C\CCN2CCCC(C(=O)O)C2)(c2ccc(OC)cc2)c2ccc(OC)cc2)cc1` (racemic), the activity at 100 µM was determined as 63%.

As to `COc1ccc(C(O)(/C=C\CN2CCCC(C(=O)O)C2)c2ccc(OC)cc2)cc1` (racemic), the activity at 100 µM stood at 85%.

As for `COc1ccc(C(/C=C\CN2CCCC(C(=O)O)C2)c2ccc(OC)cc2)cc1` (racemic), the activity at 100 µM amounted to 68%.

`COc1ccc(C(/C=C\CN2CCCC(C(=O)O)C2)(c2ccc(OC)cc2)c2nccs2)cc1` (racemic): the activity at 100 µM was found to be 67%.

Regarding `COc1ccc(CC(/C=C\CN2CCCC(C(=O)O)C2)(c2ccc(OC)cc2)c2ccc(OC)cc2)cc1` (racemic), the activity at 100 µM came out at 65%.

For `O=C(O)C1CCCN(C/C=C\CC(c2ccccc2)(c2ccccc2)c2ccccc2)C1` (racemic), the activity at 100 µM came to 70%.

Consider `COc1ccc(C(C/C=C\CN2CCCC(C(=O)O)C2)(c2ccc(OC)cc2)c2ccc(OC)cc2)cc1` (racemic), for which the activity at 100 µM stood at 52%.

Another experiment has as its target T3, GABA transporter 4 (Mus musculus) (UniProt P31650).
T3 sequence (whole entry): T1 sequence (P31650 whole entry)
Description: Inhibition of mouse GAT4 expressed in HEK293 cells assessed as remaining [3H]GABA uptake at 100 uM preincubated for 25 mins followed by [3H]GABA addition and measured after 4 mins by liquid scintillation counting method relative to control. In kind it is cell-based.
Settings: not given
On to `COc1ccc(C(O)(/C=C\CN2CCCC(C(=O)O)C2)c2ccc(OC)cc2)cc1` (racemic), for which the Activity was 80%.

On to `COc1ccc(C(/C=C\CN2CCCC(C(=O)O)C2)(c2ccc(OC)cc2)c2nccs2)cc1` (racemic), for which the Activity was 83%.
